Values quoted from earlier work as cited in patent US7223414B1, “Silica-calcium phosphate bioactive composite for improved synthetic graft resorbability and tissue regeneration” (priority 2002, dated 2007).
Structures can show the parent of a compound that is named as a salt.

Test system: Staphylococcus aureus

With CN[C@H](CC(C)C)C(=O)N[C@H]1C(=O)N[C@@H](CC(N)=O)C(=O)N[C@H]2C(=O)N[C@H]3C(=O)N[C@H](C(=O)N[C@H](C(=O)O)c4cc(O)cc(O)c4-c4cc3ccc4O)[C@H](O)c3ccc(c(Cl)c3)Oc3cc2cc(c3O[C@@H]2O[C@H](CO)[C@@H](O)[C@H](O)[C@H]2O[C@H]2C[C@](C)(N)[C@H](O)[C@H](C)O2)Oc2ccc(cc2Cl)[C@H]1O [vancomycin hydrochloride, Vancomycin hydrochloride] as the molecule, how does the breakpoint sensitivity read?
The breakpoint sensitivity was 5 mg/L.

What about the minimum bactericidal concentrations of the same molecule?
Its minimum bactericidal concentrations is 2.34 µg/mL.

And the minimum inhibitory concentration?
The minimum inhibitory concentration was 1.18 µg/mL.
